Reference: the NIST ThermoML archive (doi:10.1016/j.fluid.2005.01.001)

Conditions: Liquid

FCC(F)(F)F [1,1,1,2-tetrafluoroethane]
Conditions | vapor or sublimation pressure [kPa]
277.22 K | 339.5
279.24 K | 364
281.25 K | 389.7
283.24 K | 416.7
285.26 K | 445.4
287.27 K | 475.4
289.27 K | 506.9
291.29 K | 539.9
293.31 K | 575.1
295.3 K | 610.8
297.32 K | 649.3
299.21 K | 685.5
299.31 K | 688.7
299.34 K | 689.4
301.19 K | 726.7
301.3 K | 730
303.06 K | 767
303.19 K | 769.8
303.31 K | 773.5
305.33 K | 819.1
307.34 K | 866.6
309.35 K | 916
311.35 K | 967.3
313.31 K | 1019.3
315.36 K | 1076.9
317.32 K | 1133
319.38 K | 1195.5
321.34 K | 1256.1
329.37 K | 1532.3
335.39 K | 1767.4
337.41 K | 1851.9
339.41 K | 1939.2
341.43 K | 2029.5
343.43 K | 2123
347.44 K | 2319.8
349.46 K | 2419.4
351.46 K | 2530.3
353.48 K | 2641.1
355.48 K | 2755.4
360.48 K | 3054.3

COC [dimethyl ether]
Conditions | vapor or sublimation pressure [kPa]
278.25 K | 317.6
283.2 K | 373.6
288.19 K | 437.4
293.2 K | 509.4
298.19 K | 589.6
303.18 K | 679.2
303.19 K | 678.1
308.19 K | 778.7
313.2 K | 888.8
318.19 K | 1009.5
323.28 K | 1144.5
323.37 K | 1146.2
328.25 K | 1289.2
333.23 K | 1447.2
338.23 K | 1619.9
343.18 K | 1805.3
343.41 K | 1814.4
347.42 K | 1976.8
348.17 K | 2007.3
351.44 K | 2149.6
353.1 K | 2224.5
353.45 K | 2240
355.08 K | 2315.6
355.46 K | 2333.3
357.49 K | 2429.5
359.49 K | 2528.5
360.52 K | 2579.1
